The source of these data is ChEMBL document CHEMBL1152029 (1997).

Broadly, the ILS is the gain in survival time of treated over control animals, in per cent. A high value points to a large benefit in survival.

The source made the active and inactive calls. The rule behind the calls is not given here.

For assay [1], the system named is Mus musculus. Description: The percent increase in life span was measured using CD2F1 male mice at 400 mg/kg dose. It is filed as functional.
The test system of assay [2] is Mus musculus. Kind of assay: Mean survival time of compound was measured using CD2F1 male mice in group of ten at 400 mg/kg dose on day 30. It is filed as functional.
In assay [3] the test system is Mus musculus. Description: %Survival of compound was measured using CD2F1 male mice in group of ten at 400 mg/kg dose on day 30. It is filed as functional. As to conditions: 720 h.
The subject of assay [4] is V79. Kind of assay: The in vitro radioprotective effect measured against Chinese hamster V-79 cells at concentration of 0.1 mM. It is filed as functional, Cricetulus griseus.
The test system of assay [5] is V79. Kind of assay: The cytotoxicity in vitro against Chinese hamster V-79 cells at concentration of 0.5 mM; NA= Not active. It is filed as functional, cell-based. To be noted: Cricetulus griseus.
The subject of assay [6] is V79. Description: The cytotoxicity in vitro against Chinese hamster V-79 cells at concentration of 1 mM. As to conditions: Cricetulus griseus, read-out: Survival. It is filed as functional.
Assay [7] concerns V79. Description: The cytotoxicity in vitro against Chinese hamster V-79 cells at concentration of 0.1 mM; NA= Not active. It is filed as functional, cell-based. As to conditions: Cricetulus griseus.
Assay [8] is described as follows: Mean survival time of treated group(T) and Mean survival time of control group(C) was measured using CD2F1 male mice at 400 mg/kg dose. It is filed as functional.
Assay [9] deals with Mus musculus. Description: The percent increase in life span was measured using CD2F1 male mice at 239 mg/kg dose. It is filed as functional.
Assay [10] deals with Mus musculus. Kind of assay: Mean survival time of compound was measured using CD2F1 male mice in group of ten at 239 mg/kg dose on day 30. It is filed as functional.
The test system of assay [11] is Mus musculus. Kind of assay: %Survival of compound was measured using CD2F1 male mice in group of ten at 239 mg/kg dose on day 30. It is filed as functional. As to conditions: 720 h.
The subject of assay [12] is Mus musculus. Description: Mean survival time of treated group(T) and Mean survival time of control group(C) was measured using CD2F1 male mice at 239 mg/kg dose. It is filed as functional.
Assay [13] deals with V79. Kind of assay: The cytotoxicity in vitro against Chinese hamster V-79 cells at concentration of 0.5 mM. It is filed as functional. As to conditions: Cricetulus griseus, read-out: Survival.
In assay [14] the test system is V79. Kind of assay: The cytotoxicity in vitro against Chinese hamster V-79 cells at concentration of 0.1 mM. It is filed as functional. To be noted: Cricetulus griseus, read-out: Survival.
Assay [15] has as its system Mus musculus. Description: The percent increase in life span was measured using CD2F1 male mice at 469 mg/kg dose. It is filed as functional.
Assay [16] has as its system Mus musculus. Kind of assay: Mean survival time of compound was measured using CD2F1 male mice in group of ten at 469 mg/kg dose on day 30. It is filed as functional.
The subject of assay [17] is Mus musculus. Kind of assay: %Survival of compound was measured using CD2F1 male mice in group of ten at 469 mg/kg dose on day 30. To be noted: 720 h. It is filed as functional.
Assay [18] can be described thus: Mean survival time of treated group(T) and Mean survival time of control group(C) was measured using CD2F1 male mice at 469 mg/kg dose. It is filed as functional.

On to `CNCCCNCCCSP(=O)(Oc1ccc(Cl)cc1)SCCCNCCCNC`, for which the ILS at 400 mg/kg in assay [1] came to 73%. The compound also yielded an MST in [2] of 23. Further, the survival at 400 mg/kg in assay [3] worked out at 50%. Besides, in [4], the DMF worked out at 1.65. Besides, the Survival entry in assay [5] and in assay [7] was “inactive” in each case. Moreover, the viability at 1000 µM in assay [6] is 94%. The Ratio in assay [8] is on record as 2.26.

As for `NCCCNCCSP(=O)(O)O` [AMIFOSTINE], in [9], the ILS at 239 mg/kg was determined as 130%. For the same compound, in assay [10], the MST amounted to 27. The survival at 239 mg/kg in [11] is 80%. In [12], the Ratio worked out at 2.63. Besides, the DMF in [4] was determined as 1.4. Further, the viability at 500 µM in [13] amounted to 2%. For the same compound, the viability at 1000 µM in [6] was determined as 0%. The viability at 100 µM in assay [14] amounted to 100%.

Consider `CNCCCNCCCSP(=O)(O)O`, for which the ILS at 469 mg/kg in assay [15] came to 18%. Moreover, the MST in assay [16] came out at 20. This compound also showed a survival at 469 mg/kg in assay [17] of 60%. The compound further returned a DMF in assay [4] of 1.5. Moreover, the viability at 500 µM in assay [13] was 99%. In assay [6], the viability at 1000 µM came to 90%. Besides, the viability at 100 µM in [14] is 93%. For the same compound, the Ratio in assay [18] stood at 1.94.
